Experimental data taken from patent publication US20240307363A1, “METHODS FOR TREATING A PULMONARY DISEASE WITH AN ALK-5 (TGF BETA R1) INHIBITOR” (Thirona Bio, Inc., priority 2021, published 2024).
Where two headings read alike, the source gives them in different places.

Experiments:
[1] = biological target: ALK5 (Homo sapiens (Human), UniProt P36897); assay: In vitro screen for ALK5 kinase inhibition (ALK5 phosphorylation of α-Casein, filter-plate radiometric); assay type: biochemical; conditions: ALK5 protein 2 nM final, α-Casein substrate; mean of two or more IC50 values
Sequence of ALK5 (P36897 34-503, species assumed): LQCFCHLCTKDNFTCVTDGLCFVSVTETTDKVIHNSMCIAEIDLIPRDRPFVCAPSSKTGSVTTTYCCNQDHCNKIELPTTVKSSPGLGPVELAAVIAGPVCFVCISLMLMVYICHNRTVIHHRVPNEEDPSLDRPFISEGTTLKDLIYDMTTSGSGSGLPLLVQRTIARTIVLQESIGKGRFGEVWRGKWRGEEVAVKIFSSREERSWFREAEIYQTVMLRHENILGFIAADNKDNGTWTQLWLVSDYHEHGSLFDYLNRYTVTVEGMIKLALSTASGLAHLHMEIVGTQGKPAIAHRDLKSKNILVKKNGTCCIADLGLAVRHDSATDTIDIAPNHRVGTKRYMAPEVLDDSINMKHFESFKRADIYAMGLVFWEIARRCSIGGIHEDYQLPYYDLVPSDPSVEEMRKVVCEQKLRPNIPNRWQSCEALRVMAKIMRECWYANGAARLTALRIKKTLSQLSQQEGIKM
Protocol: Representative compounds are tested as follows for inhibition of ALK5 autophosphorylation activity and of the ALK5 phosphorylation of α-Casein.
Representative compounds are screened using the assay procedure for ALK5 kinase activity as described below.
In a 96 well filter-bottom plate (Millipore, #MSDV N6B 50), 58 μL Assay Buffer is added to reach well. Add 10 μL of Cold ATP mix in Assay Buffer, then 10 μL of a 1:10 dilution of α-Casein stock. Then add 2 μL of compound being tested (DMSO) at a 50× final concentration. Hot ATP mix (10 μL) is added, and the reaction is started with the addition of 10 μL of a 1:350 dilution of the ALK5 protein (2 nM final) in Assay Buffer with 0.05% BSA (Bovine Serum Albumin). […] The reaction is then stopped with the addition of 100 μL of ice-cold 20% TCA (trichloroacetic acid). The assay is then incubated for at least 1 hour at 4° C., and then the contents of each well are filtered by suction through the filter. The wells are washed three times with 200 μL ice-cold 10% TCA. The plate bottom is blotted before and after removing plastic sub-base, and dried overnight at room temperature. Add 30 μL of scintillation fluid, and count 1 minute per well on a Wallac Tri-Lux scintillation counter.

[2] = rats; cited from earlier work
[3] = system: bleomycin-induced pulmonary fibrosis; conditions: bleomycin-challenged rats, cited from earlier work
[4] = Intrinsic clearance in human liver microsomes; assay type: in vitro ADME; conditions: pH 7.4, 0.1 μM test compound, 0.1 mg/mL protein, 1 mM NADPH
Protocol: Assay methods that evaluate the intrinsic clearance (CLINT) in human liver microsomes (HLMs) have been described in the art (Drug Metab. Dispos., (2005), 33(9), 1304-1311 BMC Pulmonary Medicine (2018), 18(63), 1-13). Representative compounds are tested as follows for their intrinsic clearance (CLINT) in human liver microsomes as follows.
A […] microsomal incubation cofactor solution was prepared with 100 mM potassium phosphate buffered to pH 7.4 (BD Biosciences, Woburn, Mass.) supplemented with 2 mM NADPH (Sigma-Aldrich, St. Louis, Mo.). 10 mM DMSO stocks of test compound are diluted and spiked into the cofactor solution to yield a 0.2 μM concentration (0.02% v/v DMSO). Aliquots of frozen human liver microsomes (Bioreclamation IVT, Baltimore Md.) are thawed and diluted into 100 mM potassium phosphate buffer to yield microsomal protein concentrations of 0.2 mg/mL. Cofactor/drug and microsomal solutions are pre-warmed separately for 4 minutes in a water bath held at 37° C. Incubations (n=1) are started by the combination of equal volumes of cofactor/drug solution with microsomal solution. The final concentration of test compound is 0.1 μM with a final […] protein concentration of 0.1 mg/mL and final NADPH concentration of 1 mM. […] Samples are then injected onto an AB Sciex API 4000 triple quadrupole mass spectrometer for quantitation by LC-MS/MS. […]

[5] = system: bleomycin-induced lung fibrosis; assay: Efficacy study in bleomycin lung fibrosis model; assay type: in vivo; conditions: mice
Protocol: Compound 3 may be used to prevent and reverse lung fibrosis and improve lung function and exercise capacity. Male C57BL6/J mice (7-9 weeks old) from the Jackson Laboratory (Bar Harbor, ME), are used for efficacy studies. […] Bleomycin (1-5 U/kg) in […] is intratracheally sprayed into mice lightly anaesthetized with isoflurane (5% in 100%02). Control animals receives […] of 0.9% saline. […] Animals are treated until the end of the study (day 21 post-bleomycin administration). Lung Function and Exercise Capacity: Invasive lung function measurements are taken at specified time points following bleomycin. Mice are anesthetized with 2.5 mg sodium pentobarbital (Abbott Labs, IL), and the trachea cannulated. Animals are mechanically ventilated using a computer-controlled piston ventilator (flexiVent, SCIREQ Inc., Montreal, Canada: tidal volume=10 ml/kg, respiratory rate of 150 breaths/min, 3 cmH2O positive end-expiratory pressure). To test exercise capacity animals are placed on a treadmill at a 5% incline at a speed to 10 m/minute and the speed increased 1 m/minute every 4 minutes of the test until exhausted. Baseline exercise capacity for each mouse is assessed 2 days prior to either saline or bleomycin administration and then once weekly after administration at days 6, 12, and 19 post-instillation. Bronchoalveolar Lavage Cell Assessment: Immediately following lung function measurements, mice are exsanguinated, bronchoalveolar lavage fluid (BALF) is collected, and total and differential cell counts are performed. […] Samples are mixed and centrifuged before injection for LC/MS/MS analysis. LC/MS/MS analysis is conducted by gradient HPLC with selective reaction monitoring (SRM). The calibration range was 40-2,000 ng/ml. The LC/MS/MS system used for the analysis consisted of an AB-Sciex API4000 with an electrospray source connected to an Agilent 1200 pump, a Waters 2777 autosampler, and an Agilent 1100 series column oven. Chromatographic analysis is conducted by HILIC HPLC with an Ascentis Express HILIC ([…], 2.7 um) column. The SRM transition is m/z 132 to m/z 41. Histology: After performing lung function measurements, whole lungs (that are not subject to bronchoalveolar lavage) are inflated under 25 cm H2O pressure with 10% neutral buffered formalin through the tracheal cannula and immersed in formalin for at least 24 h. After being processed into paraffin blocks, the lungs are sectioned ([…]) and stained with either hematoxylin and cosin (H&E) or immunolabeled with an anti-collagen I antibody (rabbit polyclonal, Genetex Inc., Irvine, CA), to assess fibrotic changes in the lungs. To determine the fibrosis histopathology score for the lung of each mouse, the entire left and right longitudinal lung sections (at the level of tracheal bifurcation) are scored separately at 100× magnification and the scores were combined (total score range 0-8). Grading criteria are as follows: Grade 0=no apparent fibrosis; Grade 1=minimal fibrosis with rare foci of mostly interstitial alveolar septal fibrosis affecting less than 5% of the entire lung section; Grade 2=mild fibrosis characterized by multiple foci with thickening of alveolar septa by fibrosis and progressing to regions with fibrous deposition within the alveolar spaces with some damage to the alveoli, affecting 5-25% of the entire lung section; Grade 3=moderate fibrosis with multiple or single coalescing large areas of fibrosis effacing the alveoli with definitive damage to pulmonary architecture, affecting 25-50% of the entire lung section; Grade 4=marked fibrosis with severe distortion of pulmonary parenchyma by large contiguous fibrous areas, affecting 50-75% of the entire lung section. For collagen I IHC quantification, glass slides are scanned at 20× using a Zeiss Mirax scanner (Carl Zeiss Microimaging. Thornwood, NY), and digital slides generated were analyzed using Definiens Tissue Studio software (Definiens, Munich, Germany). […]

[6] = system: luc-CT26 tumor outgrowth in the lungs; assay: Efficacy study in a syngeneic lung cancer model (luc-CT26 cells i.v., lung bioluminescence); assay type: in vivo; conditions: BALB/c mice
Protocol: Compound 3 may be used to suppress tumor growth in the lungs of a syngeneic cancer model when administered alone or in combination with an immunotherapeutic agent. Six- to eight-week old BALB/c mice are used for in vivo efficacy studies in accordance with IACUC guidelines. Firefly luciferase-expressing CT-26 mouse colon carcinoma cells (luc-CT26, CSC-RR0237, Creative Biogene, Shirley, NY, USA) are grown at 37° C. in a 5% CO2 humidified atmosphere in Dulbecco's Modified Eagle's Medium (D6429, Dominique Dutscher, Brumath, France) supplemented with 10% foetal bovine serum (500105NIDD, Dominique Dutscher), 0.2% glucose (19002-013, Gibco, Thermo Fisher Scientific, Hampton, NH, USA), 2 mM L-[…], Dominique Dutscher), 100 U/ml penicillin and 100 μg/ml streptomycin (15140155, Gibco, Thermo Fisher Scientific). Cell suspensions are prepared by enzymatic treatment with trypsin-EDTA (11560626, Thermo Fisher Scientific). Luc-CT26 cells (2×10^5 cells/mouse) are injected intravenously into BALB/c mice to generate the cancer model in which tumor outgrowth in the lungs is observed. Following injection of CT26 cells and starting on day 6, the mice are monitored 3 times a week (i.e., day 6, day 8, day 11, day 13, etc.) using an IVIS spectrum imaging system (Caliper, PerkinElmer) after ip injection of D-luciferin. […] Body weight is measured twice weekly.

[7] = system: heart valves; conditions: preclinical animal model; all heart valves at all doses tested; cited from earlier work
[8] = rats, chronic (>3 months) administration; cited from earlier work
[9] = dogs, chronic (>3 months) administration; cited from earlier work
[10] = cynomolgus monkey, in vivo; cited from earlier work
[11] = cited from earlier work
[12] = system: bleomycin model; conditions: cited from earlier work

In the case of `CCc1cnn(-c2cccc(C)n2)c1-c1cc2cnccc2s1` [Compound 7], the IC50 [1] is reported as 4.33 nM.

For `O=C(NC1CCOCC1)c1ccc(-c2cc(-c3c[nH]nc3-c3ccccn3)ccn2)cc1` [Compound 46], the physeal dysplasia [2] is given as “induced physeal dysplasia”.

In the case of `Cc1cccc(-c2[nH]c(C(C)(C)C)nc2-c2ccc3nccnc3c2)n1` [SB-525334], the “parameters of lung function” value ([3]; after onset of fibrosis, vs vehicle-treated controls) is listed as “significant dose-dependent improvements” and the pulmonary pathology [3] is listed as “significant reduction”.

With `Cc1cccc(-n2ncc(C)c2-c2cc3cnccc3s2)n1` [Compound 3, 2-[4-methyl-1-(6-methylpyridin-2-yl)-1H-pyrazol-5-yl]thieno[3,2-c]pyridine] the CLint scaled at 0.1 μM [4] was 199 mL/min/kg, the HP content ([5]; 4-hydroxyproline, intranasal) was “significant reduced” and the bleomycin-induced lung fibrosis ([5]; dosed intranasally, prophylactic or therapeutic, until day 21) was “prevents and/or reverses”. The “collagen 1 assessed by IHC” value ([5]; intranasal) was “reduced”, the “fibrosis histopathology scores in the lung” value ([5]; intranasal) was “improvements” and the lung function ([5]; intranasal) was “significantly improved”. The exercise capacity ([5]; intranasal, treadmill) was “increased”, the “bioluminescence intensity (BLI) in the lungs” value ([6]; Compound 3 alone, intranasal) was “Statistically significant reduction” and the “efficacy as measured by reduction in BLI” value ([6]; combination with an immunotherapeutic agent) was “increased efficacy”.

For `c1ccc(-c2nc3c(c(-n4ccc5cnccc54)n2)CCC3)nc1` [Compound 47], the heart valve lesions [7] is given as “induced heart valve lesions”.

For `Cc1ccc(Oc2ccnc(Nc3ccc(S(N)(=O)=O)cc3)c2)c(C)n1` [Compound 48], the heart valve lesions [7] is listed as “induced heart valve lesions”.

In the case of `Cc1cccc(-c2nn3c(c2-c2ccnc4ccc(C(N)=O)cc24)CCC3)n1` [Compound 41, galunisertib], the organ toxicities [8] is given as “caused multiple organ toxicities” and the organ toxicities [9] is given as “caused multiple organ toxicities”.

For “Fresolimumab: a “pan” TGF-β antibody capable of neutralizing all human isoforms of TGF-β”, the “epithelial hyperplasia of the gingiva, bladder and nasal turbinate epithelium” value [10] is given as “induce an epithelial hyperplasia”, the adverse events ([11]; human, in vivo) is given as “bleeding and anemia issues” and the clinical anti-fibrotic efficacy ([11]; scleroderma patients) is given as “clear clinical anti-fibrotic efficacy”.

For `Cc1cccc(-c2[nH]ncc2-c2ccc(F)c(-c3cnn(CCO)c3)c2)n1` [Compound R-268712], the antifibrotic efficacy [12] is listed as “strong antifibrotic efficacy”.
